Reference: patent publication US20240148821A1, “PHARMACEUTICAL USE OF CYCLIC PEPTIDE COMPOUND” (CHUGAI SEIYAKU KABUSHIKI KAISHA, priority 2021, published 2024)
Numbered stars: 1 amine (or outer) side, 2 acyl side, 3 side chain; on linkers, the order of the positions; unused ones are H or OH. Bridge positions count the residues as written; N and C are the ends. Square brackets hold non-standard residues; d marks the D form. Peptide text beside a SMILES is read from it. * marks the point of attachment. hPhe(3-Cl-4-CF3) = N[C@@H](CCc1ccc(C(F)(F)F)c(Cl)c1)C(=O)O; hPhe(3-F,4-CF3) = N[C@@H](CCc1ccc(C(F)(F)F)c(F)c1)C(=O)O; NMeAla(4-thiazolyl) = CN[C@@H](Cc1cscn1)C(=O)O; X24 = COc1cncc(C[C@@H](C(=O)[*:2])N(C)[*:1])c1; NMe3Pal(6-Me) = CN[C@@H](Cc1ccc(C)nc1)C(=O)O; NMePhe(4-Cl) = CN[C@@H](Cc1ccc(Cl)cc1)C(=O)O; NMePhe(2-CN) = CN[C@@H](Cc1ccccc1C#N)C(=O)O; NMePhe(4-Me) = CN[C@@H](Cc1ccc(C)cc1)C(=O)O; NMedβ3hAla = C[C@H](CC(=O)[*:2])N(C)[*:1]; NMeGly(cPent) = CN[C@H](C(=O)O)C1CCCC1; Phe(2-Cl) = N[C@@H](Cc1ccccc1Cl)C(=O)O; Phe(3-I) = N[C@@H](Cc1cccc(I)c1)C(=O)O; NMeCha = CN[C@@H](CC1CCCCC1)C(=O)O; N(isopentyl)Gly = CC(C)CCNCC(=O)O; NMeChg = CN[C@H](C(=O)O)C1CCCCC1; NMeF = CN[C@@H](Cc1ccccc1)C(=O)O; NMeD = CN[C@@H](CC(=O)O)C(=O)O; NMeL = CN[C@@H](CC(C)C)C(=O)O; Chg = N[C@H](C(=O)O)C1CCCCC1; NMeV = CN[C@H](C(=O)O)C(C)C; d(β3hA) = C[C@@H](N)CC(=O)O; NMeA = CN[C@@H](C)C(=O)O; NMeAib = CNC(C)(C)C(=O)O; Piperidide = C1CCN(*)CC1; Ac5c = NC1(C(=O)O)CCCC1; Aze = O=C(O)[C@@H]1CCN1; Isopentyl = CC(C)CC*; Sar = CNCC(=O)O

Each compound was assayed on Human pancreatic cancer cell line AsPC-1 (G12D mutation Kras) (assay: AsPC-1 cell growth inhibition (AsPC-1 CGI)). Details: read-out: AsPC-1 cell growth inhibition, 50% growth inhibitory concentration (IC50 value); 96 hours, CellTiter-Glo, values classified in ranges.
Type: cell-based
Procedure: Test compounds were serially dilated with dimethyl sulfoxide, and 200 nL was then dispensed to a U-bottom 96-well plate using Labcyte Echo. […] The cell suspension was dispensed to a. plate containing a test compound at 100 μL per well and incubated at 37° C. in a 5% carbon dioxide gas incubator. 96 hours later, 80 μL of CellTiter-Glo (Promega) was added to each well and fluorescence was measured.

For `CC[C@H](C)[C@@H]1NC(=O)[C@H](CC(C)C)N(C)C(=O)C[C@@H](C)NC(=O)[C@H](C(C)C)N(C)C(=O)C2(CCCC2)NC(=O)[C@@H]2CCCN2C(=O)[C@H](CCc2ccc(C(F)(F)F)c(Cl)c2)NC(=O)CN(C)C(=O)[C@H](Cc2ccccc2C#N)N(C)C(=O)CN(C)C(=O)CN(C)C1=O` [Compound 767] (cyclo([Ac5c][NMeV][d(β3hA)][NMeL]I[Sar][Sar][NMePhe(2-CN)][Sar][hPhe(3-Cl-4-CF3)]P)), which IC50 is on record?
Its IC50 is over 500 nM.

`CC[C@H](C)[C@@H]1NC(=O)[C@H](CC(C)C)N(C)C(=O)C[C@@H](C(=O)N2CCCCC2)N(C)C(=O)[C@H](C2CCCCC2)N(C)C(=O)C2(CCCC2)NC(=O)[C@H](Cc2cncc(OC)c2)N(C)C(=O)[C@H](CCc2ccc(C(F)(F)F)c(Cl)c2)NC(=O)CN(C)C(=O)[C@H](CC2CCCCC2)N(C)C(=O)[C@@H]2CCN2C(=O)CN(C)C1=O` [Compound 770] ([NMeL]I[Sar][Aze][NMeCha][Sar][hPhe(3-Cl-4-CF3)][X24][Ac5c][NMeChg][NMeD]-Piperidide; lactam N-11) was tested. Which IC50 did it give?
Its IC50 is over 500 nM.

`CC[C@H](C)[C@@H]1NC(=O)[C@H](CC(C)C)N(C)C(=O)C[C@@H](C)N(C)C(=O)[C@H](CC(C)C)NC(=O)C(C)(C)N(C)C(=O)[C@H](C2CCCCC2)NC(=O)[C@H](CCc2ccc(C(F)(F)F)c(F)c2)NC(=O)CN(C)C(=O)[C@H](Cc2ccc(Cl)cc2)N(C)C(=O)CN(C)C(=O)CN(C)C1=O` [Compound 772] (cyclo([Chg][NMeAib]L[NMedβ3hAla][NMeL]I[Sar][Sar][NMePhe(4-Cl)][Sar][hPhe(3-F,4-CF3)])) was tested. Which IC50 did it give?
The IC50 was over 500 nM.

`CC[C@H](C)[C@@H]1NC(=O)[C@H](CC(C)C)N(C)C(=O)C[C@@H](C(=O)N2CCCCC2)N(C)C(=O)[C@H](CC(C)C)NC(=O)C(C)(C)N(C)C(=O)[C@H](Cc2ccccc2Cl)NC(=O)[C@H](Cc2cccc(I)c2)NC(=O)CN(C)C(=O)[C@H](Cc2ccc(C)cc2)N(C)C(=O)[C@@H]2CCN2C(=O)CN(C)C1=O` [Compound 781] ([NMeL]I[Sar][Aze][NMePhe(4-Me)][Sar][Phe(3-I)][Phe(2-Cl)][NMeAib]L[NMeD]-Piperidide; lactam N-11) was tested. Which IC50 did it give?
Its IC50 is over 500 nM.

With `CC[C@H](C)[C@@H]1NC(=O)[C@H](C)N(C)C(=O)C[C@@H](C)NC(=O)[C@H](C(C)C)N(C)C(=O)[C@H](Cc2ccccc2)N(C)C(=O)[C@H](CC(C)C)N(C)C(=O)[C@H](CCc2ccc(C(F)(F)F)c(F)c2)NC(=O)CN(C)C(=O)[C@H](Cc2ccc(Cl)cc2)N(C)C(=O)[C@@H]2CCN2C(=O)CN(C)C1=O` [Compound 782] (cyclo([Aze][NMePhe(4-Cl)][Sar][hPhe(3-F,4-CF3)][NMeL][NMeF][NMeV][d(β3hA)][NMeA]I[Sar])) as the compound, how does the IC50 read?
The IC50 was over 500 nM.

For `CC[C@H](C)[C@@H]1NC(=O)[C@H](CC(C)C)N(C)C(=O)C[C@@H](C(=O)N2CCCCC2)N(C)C(=O)[C@H](C2CCCCC2)N(C)C(=O)C2(CCCC2)NC(=O)[C@H](Cc2ccc(C)nc2)N(C)C(=O)[C@H](CCc2ccc(C(F)(F)F)c(Cl)c2)NC(=O)CN(C)C(=O)[C@H](CC2CCCCC2)N(C)C(=O)[C@@H]2CCN2C(=O)CN(C)C1=O` [Compound 786] ([NMeL]I[Sar][Aze][NMeCha][Sar][hPhe(3-Cl-4-CF3)][NMe3Pal(6-Me)][Ac5c][NMeChg][NMeD]-Piperidide; lactam N-11), which IC50 is on record?
The IC50 was over 500 nM.

With `CC(C)CCOC[C@@H]1NC(=O)[C@H](CC(C)C)N(C)C(=O)C[C@@H](C(=O)N2CCCCC2)N(C)C(=O)[C@H](C2CCCCC2)N(C)C(=O)C2(CCCC2)NC(=O)[C@@H]2CCCN2C(=O)[C@H](CCc2ccc(C(F)(F)F)c(Cl)c2)NC(=O)CN(C)C(=O)[C@H](CC2CCCCC2)N(C)C(=O)CN(C)C(=O)CN(C)C1=O` [Compound 794] ([NMeL]S(Isopentyl)[Sar][Sar][NMeCha][Sar][hPhe(3-Cl-4-CF3)]P[Ac5c][NMeChg][NMeD]-Piperidide; lactam N-11) as the compound, how does the IC50 read?
The IC50 was over 500 nM.

How did the IC50 turn out when `CC[C@H](C)[C@@H]1NC(=O)[C@H](CC(C)C)N(C)C(=O)C[C@@H](C)NC(=O)[C@H](C(C)C)N(C)C(=O)C2(CCCC2)NC(=O)[C@@H]2CCCN2C(=O)[C@H](CCc2ccc(C(F)(F)F)c(Cl)c2)NC(=O)CN(C)C(=O)[C@H](CC2CCCCC2)N(C)C(=O)CN(CCC(C)C)C(=O)CN(C)C1=O` [Compound 801] (cyclo([Ac5c][NMeV][d(β3hA)][NMeL]I[Sar][N(isopentyl)Gly][NMeCha][Sar][hPhe(3-Cl-4-CF3)]P)) was run?
Its IC50 is over 500 nM.

`CC[C@H](C)[C@@H]1NC(=O)[C@H](CC(C)C)N(C)C(=O)C[C@@H](C(=O)N(C)C)N(C)C(=O)[C@H](C2CCCC2)N(C)C(=O)[C@H](C)NC(=O)[C@H](Cc2cscn2)N(C)C(=O)[C@H](CCc2ccc(C(F)(F)F)c(Cl)c2)NC(=O)CN(C)C(=O)[C@H](CC2CCCCC2)N(C)C(=O)[C@@H]2CCN2C(=O)[C@H](C)N(C)C1=O` [Compound 805] ([NMeL]I[NMeA][Aze][NMeCha][Sar][hPhe(3-Cl-4-CF3)][NMeAla(4-thiazolyl)]A[NMeGly(cPent)][NMeD]-NMe2; lactam N-11) was tested. Which IC50 did it give?
The IC50 was over 500 nM.
